The results in this text go back to PMC7692551, “Characterization of a Robust and pH-Stable Tannase from Mangrove-Derived Yeast Rhodosporidium diobovatum Q95” (Marine Drugs, 2020).

This assay concerns T1, TanRd.
T1 construct: recombinant secreted from Yarrowia lipolytica, codon-optimised, XPR2 signal peptide, His-tag; ORF 1719 bp, 572 aa, predicted native signal peptide 1-19
The assay is described as follows: gallate ester hydrolysis, gallic acid release. Format: biochemical, Rhodotorula diobovata. The note with it: kinetic assay conditions not stated. An excerpt: gallate ester hydrolysis, gallic acid release on TanRd

The Km is the substrate concentration at which the rate is half of its maximum. With `O=C(O[C@@H]1Cc2c(O)cc(O)cc2O[C@@H]1c1ccc(O)c(O)c1)c1cc(O)c(O)c(O)c1` [ECG, epicatechin gallate], the Km amounted to 1650 µM.
For `COC(=O)c1cc(O)c(O)c(O)c1` [MG, methyl gallate], the Km came out at 2310 µM.
As for `O=C(O[C@@H]1Cc2c(O)cc(O)cc2O[C@@H]1c1cc(O)c(O)c(O)c1)c1cc(O)c(O)c(O)c1` [EGCG, epigallocatechin gallate], the figure is 2190 µM; as for `O=C(O[C@H]1Cc2c(O)cc(O)cc2O[C@@H]1c1ccc(O)c(O)c1)c1cc(O)c(O)c(O)c1` [CG, catechin gallate], 1670 µM.
As to `CCCOC(=O)c1cc(O)c(O)c(O)c1` [PG, propyl gallate], the Km was 1490 µM.
